# ChEMBL document CHEMBL2074508, “Functional characterization of the human multidrug transporter, ABCG2, expressed in insect cells” (Biochem Biophys Res Commun, 2001)
# Biological target: T1, Broad substrate specificity ATP-binding cassette transporter ABCG2 (Homo sapiens, UniProt Q9UNQ0)
# T1 sequence (Q9UNQ0 whole entry): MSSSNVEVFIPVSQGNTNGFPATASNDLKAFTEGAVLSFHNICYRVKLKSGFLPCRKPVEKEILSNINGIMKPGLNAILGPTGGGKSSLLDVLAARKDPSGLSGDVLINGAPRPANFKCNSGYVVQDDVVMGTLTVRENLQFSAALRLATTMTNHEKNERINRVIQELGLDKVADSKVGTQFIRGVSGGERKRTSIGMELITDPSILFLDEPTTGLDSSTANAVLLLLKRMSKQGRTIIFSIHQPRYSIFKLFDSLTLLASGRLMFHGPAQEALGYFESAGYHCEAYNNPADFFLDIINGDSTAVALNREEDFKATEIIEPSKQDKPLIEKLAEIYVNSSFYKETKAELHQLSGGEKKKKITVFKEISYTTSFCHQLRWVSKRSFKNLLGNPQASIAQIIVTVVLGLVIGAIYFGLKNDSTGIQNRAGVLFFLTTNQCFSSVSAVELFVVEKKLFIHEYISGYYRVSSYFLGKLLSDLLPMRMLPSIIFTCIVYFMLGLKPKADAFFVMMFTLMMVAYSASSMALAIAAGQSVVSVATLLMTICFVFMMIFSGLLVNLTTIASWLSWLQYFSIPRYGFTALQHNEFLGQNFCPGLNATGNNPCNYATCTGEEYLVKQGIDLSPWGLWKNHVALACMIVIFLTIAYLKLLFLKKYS
# Assay: TP_TRANSPORTER: ATP hydrolysis in membrane vesicle from BCRP-expressing Sf9 cells
# Assay type: functional, cell membranes
# Conditions: read-out: Kact
row,Compound,EC50
1,O=C1c2c(O)ccc(O)c2C(=O)c2c(NCCNCCO)ccc(NCCNCCO)c21 [MITOXANTRONE],7 µM
2,COc1cc2nc(N3CCN(C(=O)c4ccco4)CC3)nc(N)c2cc1OC [PRAZOSIN],1 µM
3,COc1cccc2c1C(=O)c1c(O)c3c(c(O)c1C2=O)C[C@@](O)(C(=O)CO)C[C@@H]3O[C@H]1C[C@H](N)[C@H](O)[C@H](C)O1 [DOXORUBICIN],5 µM
4,COc1cccc2c1C(=O)c1c(O)c3c(c(O)c1C2=O)C[C@@](O)(C(C)=O)C[C@@H]3O[C@H]1C[C@H](N)[C@H](O)[C@H](C)O1 [DAUNORUBICIN],2.5 µM
5,COC(=O)c1ccccc1-c1c2ccc(=N)cc-2oc2cc(N)ccc12 [RHODAMINE123],4.5 µM

# Biological target: T1, Broad substrate specificity ATP-binding cassette transporter ABCG2
# Assay: TP_TRANSPORTER: inhibition of ATPase in membrane vesicle from BCRP-expressing Sf9 cells
# Assay type: functional, cell membranes
# Conditions: not given
row,Compound,Ki
1,COc1ccc2c3c([nH]c2c1)[C@H](C=C(C)C)N1C(=O)[C@@H]2CCCN2C(=O)[C@@H]1C3 [FUMITREMORGIN],1.3 µM
